The values that follow come from patent publication US11352372B2, “Benzimidamides compounds comprising an oxaborinin ring” (INSTITUT NATIONAL DE LA SANTÉ ET DE LA RECHERCHE MÉDICALE …, priority 2018, dated 2022).

Counter-ions that a name gives are not always drawn.

For the first assay, the target named is T1, human kallikrein 5 recombinant enzyme (KLK5) (Homo sapiens, UniProt Q9Y337).
T1 construct: The cleaved protein was then further purified on a 1 mL Heparin HP HITRAP column; 6His (cleaved yes); FLAG (cleaved yes); made in house; host or cells: Spodoptera frugiperda Super 9 insect cells (baculovirus, BAC-TO-BAC)
T1 sequence (Q9Y337 67-293 limits assumed): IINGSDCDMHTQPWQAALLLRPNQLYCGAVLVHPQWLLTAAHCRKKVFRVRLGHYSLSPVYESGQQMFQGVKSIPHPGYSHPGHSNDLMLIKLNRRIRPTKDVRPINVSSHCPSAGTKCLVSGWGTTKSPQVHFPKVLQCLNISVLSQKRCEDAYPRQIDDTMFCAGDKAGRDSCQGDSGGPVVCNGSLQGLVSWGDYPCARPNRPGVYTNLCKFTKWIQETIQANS
Briefly: Kinetic FLINT KLK5 assay. The assay is classed as biochemical. Particulars: 7.5 nM KLK5, 9 uM (Tos-Gly-Pro-Arg)2[R110] substrate, pH 8; each compound tested more than once. The protocol:
Recombinant KLK5 protein was generated from a recombinant baculovirus using the BAC-TO-BAC system (INVITROGEN) (pFastBac_hKLK5_6His-Q-FLAG) expressed in 5 L of Spodoptera frugiperda Super 9 insect cells with a viral infection rate of 1.0. The protein was secreted into HYCLONE SFX growth media (GE HEALTHCARE) from which it was extracted on a 5 mL HISTRAP EXCEL column (GE HEALTHCARE). The column was washed with 500 mM NaCl, 20 mM Tris pH 7.4 buffer and the protein eluted using 500 mM imidazole in 250 mM NaCl, 20 mM Tris pH 7.4 buffer. The eluent was captured on a 5 mL ANTI-FLAG M2 Affinity Gel column (SIGMA). KLK5 was eluted by competing off the bound protein with 0.2 mg/mL FLAG peptide (SIGMA) in 50 mM NaCl, 20 mM Tris-HCl pH 7.4 buffer. 1 M CaCl2 was added to the pooled fractions to a final concentration 2 mM and these were treated with 0.1 U of enterokinase (NOVAGEN) per μg of target protein. The proteins were incubated at room temperature for ˜48 h. The cleaved protein was then further purified on a 1 mL Heparin HP HITRAP column (GE HEALTHCARE) in 20 mM MOPS, pH 6.8 buffer, washed with 100 mM NaCl in 20 mM MOPS, pH 6.8 buffer and eluted with 700 mM NaCl in this buffer. Fractions containing KLK5 were pooled and concentrated using an AMICON concentrator with a molecular weight cut off of 10000 Da. For cryoprotection, glycerol was added to a final concentration of 50%. All purifications were carried out using a semi-automated ÄKTA systems from GE HEALTHCARE.
11 point, 3-fold serial dilutions of each supporting compound were prepared in DMSO and 50 nL of these solutions were dispensed into black LV 384-well plates (GREINER BIO-ONE, Stonehouse, UK) using an ECHO 555 acoustic dispenser (LABCYTE, Sunnyvale, Calif.). This gave a final assay concentration range between 10 μM and […] in 5 μL final assay volume. 50 nL DMSO was dispensed into columns 6 and 18 for high and low controls, respectively. The assay plates were sealed and stored at 4° C. until required.
Conditions for the assay of human kallikrein 5 recombinant enzyme (KLK5), were 100 mM sodium phosphate, pH 8, 1 mM CHAPS, 7.5 nM KLK5 enzyme (see above for preparation), 9 uM peptide substrate ((Tos-Gly-Pro-Arg)2[R110].2TFA) in a total reaction volume of 5 μL.
Assays were performed by initially dispensing 2.5 μL of an enzyme solution (15 nM KLK5 in sodium phosphate, pH 8, 1 mM CHAPS) into all wells of the assay plate (except for column 18) then, 2.5 μL of buffer to column 18 (to generate low controls). Reactions were initiated by addition of 2.5 μL of substrate solution [18 uM (Tos-Gly-Pro-Arg)2[R110].2TFA (Cambridge Research Biochemicals) in sodium phosphate, pH 8, 1 mM CHAPS] to all wells. Plates were immediately centrifuged to reach 1000 rpm before transfer to the reader. All additions were made using a MULTIDROP COMBI dispenser (THERMO FISHER SCIENTIFIC). The assay plates were transferred to a PERKIN ELMER VIEWLUX. The plates were excited at 485 nm and the rates of Rhodamine110 fluorecent emission measured at 535 nm, following cleavage of the substrate by KLK5. Ten measurements were taken over 5 minutes with a read interval of 30 seconds.
From the raw data, the enzyme reaction rates were calculated as relative fluorescence units (RFU). Using the 10 reads collected, per well, a straight line was fitted through data. Initial rates were calculated from the slope of the reaction progress curves. The rate data was normalised to % inhibition between high controls in column 6 (0% inhibition) and low controls in column 18 (100% inhibition). Dose response curves were fitted using the IDBS Primary module fit. The data were fitted by means of a four-parameter fit logistic:
Where x is the inhibitor concentration, y is inhibition (%), A is the minimum response, D is the maximum response, C is the IC50 for the curve and B is the Hill slope. The −log(IC50) gives the pIC50.
Consider `Cl.N=C(N)c1ccc(C2Cc3ccc(C(F)(F)F)cc3B(O)O2)cc1OCc1cccnc1` (centres unmarked) [Compound 1, 4-(1-Hydroxy-7-(trifluoromethyl)-3,4-dihydro-1H-benzo[c][1,2]oxaborinin-3-yl)-2-(pyridin-3-ylmethoxy)benzimidamide hydrochloride salt], for which the “average pIC50” value worked out at 8.5.

Take `Cl.N=C(N)c1ccc(C2Cc3cc(Cl)c(F)cc3B(O)O2)cc1OCc1cccnc1` (centres unmarked) [Compound 7, 4-(6-chloro-7-fluoro-1-hydroxy-3,4-dihydro-1H-benzo[c][1,2]oxaborinin-3-yl)-2-(pyridin-3-ylmethoxy)benzimidamide]: the “average pIC50” value worked out at 8.1.

On to `Cl.N=C(N)c1ccc(C2Cc3ccccc3B(O)O2)cc1OCc1cccnc1` (centres unmarked) [Compound 8, 4-(1-hydroxy-3,4-dihydro-1H-benzo[c][1,2]oxaborinin-3-yl)-2-(pyridin-3-ylmethoxy)benzimidamide], for which the “average pIC50” value came to 8.2.

Staying with this assay, now noted: 7.5 nM KLK5, 9 uM (Tos-Gly-Pro-Arg)2[R110] substrate, pH 8; each compound tested more than once; read-out: average pIC50 (converted).
On to `N=C(N)c1ccc([C@H]2Cc3ccc(C(F)(F)F)cc3B(O)O2)cc1OCc1cccnc1` [Compound 2, (R)-4-(1-hydroxy-7-(trifluoromethyl)-3,4-dihydro-1H-benzo[c][1,2]oxaborinin-3-yl)-2-(pyridin-3-ylmethoxy)benzimidamide hydrochloride salt], for which the IC50 is 3.98 nM.

For `N=C(N)c1ccc([C@H]2Cc3ccc(C(F)(F)F)cc3B(O)O2)cc1OCc1cccnc1` [Compound 3, (R)-4-(1-hydroxy-7-(trifluoromethyl)-3,4-dihydro-1H-benzo[c][1,2]oxaborinin-3-yl)-2-(pyridin-3-ylmethoxy)benzimidamide], the IC50 was 39.8 nM.

As for `N=C(N)c1ccc([C@@H]2Cc3ccc(C(F)(F)F)cc3B(O)O2)cc1OCc1cccnc1` [Compound 4], the IC50 is 3.98 nM.

On to `N=C(N)c1ccc(C2Cc3ccc(C(F)(F)F)cc3B(O)O2)cc1OCc1cccc(Cl)c1` (centres unmarked) [Compound 5, 2-((3-chlorobenzyl)oxy)-4-(1-hydroxy-7-(trifluoromethyl)-3,4-dihydro-1H-benzo[c][1,2]oxaborinin-3-yl)benzimidamide], for which the IC50 is 7.94 nM.

On to `N=C(N)c1ccc(C2Cc3ccc(C(F)(F)F)cc3B(O)O2)cc1` (centres unmarked) [Compound 6, 4-(1-hydroxy-7-(trifluoromethyl)-3,4-dihydro-1H-benzo[c][1,2]oxaborinin-3-yl)benzimidamide], for which the IC50 was 10 nM.
